Measurements reported in PubChem BioAssay AID1963441 (Molecular Pharmacology Branch, DTP, NCI, 2024).
Each block holds one compound with its values, some of them ahead of it.

System: NCI-H1876 complex spheroid growth, % test/control
Assay: Anticancer human tumor NCI-H1876 cell line growth inhibition [Asc];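 also: compound exposure lasted 7 days starting three days after seeding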;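 as to viability, T/C: 100% = DMSO vehicle control wells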
Details: for viability, T/C: stronger effect = lower value
How it was run: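 Complex solid-tumor spheroids incorporating human endothelial and mesenchymal stem cells received single agents or combinations over half-log dilution ranges anchored to clinical Cmax.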

[1] = curve of first compound, second compound 0.0316 µM
[2] = curve of first compound, second compound 0.1 µM
[3] = curve of first compound, second compound 0.316 µM
[4] = curve of first compound, second compound 1 µM
[5] = second compound 0.0316 µM, first compound 0.0316 µM
[6] = second compound 0.0316 µM, first compound 0.1 µM
[7] = second compound 0.1 µM, first compound 0.0316 µM
[8] = second compound 0.1 µM, first compound 0.1 µM
[9] = second compound 0.316 µM, first compound 0.0316 µM
[10] = second compound 0.316 µM, first compound 0.1 µM
[11] = second compound 1 µM, first compound 0.0316 µM
[12] = second compound 1 µM, first compound 0.1 µM

- IC50 (curve of first compound, second compound 0.00316 µM): > 0.1 µM
- IC50 (curve of first compound, second compound 0.01 µM): > 0.1 µM
- IC50 [1]: > 0.1 µM
- IC50 [2]: > 0.1 µM
- IC50 [3]: > 0.1 µM
- IC50 [4]: > 0.1 µM
Compound: Cn1ncnc1[C@H]1c2n[nH]c(=O)c3cc(F)cc(c23)N[C@@H]1c1ccc(F)cc1 + CNC(C)C(=O)NC1CN(S(=O)(=O)c2cccc(S(=O)(=O)N3CCC4CCC(C(=O)NC(c5ccccc5)c5ccccc5)N4C(=O)C(NC(=O)C(C)NC)C3)c2)CCC2CCC(C(=O)NC(c3ccccc3)c3ccccc3)N2C1=O
- viability, T/C (second compound 0.00316 µM, first compound 0.000316 µM): 72.3%
- viability, T/C (second compound 0.00316 µM, first compound 0.001 µM): 63.5%
- viability, T/C (second compound 0.00316 µM, first compound 0.00316 µM): 68.2%
- viability, T/C (second compound 0.00316 µM, first compound 0.01 µM): 55.5%
- viability, T/C (second compound 0.00316 µM, first compound 0.0316 µM): 51.2%
- viability, T/C (second compound 0.00316 µM, first compound 0.1 µM): 54.3%
- viability, T/C (second compound 0.01 µM, first compound 0.000316 µM): 92.8%
- viability, T/C (second compound 0.01 µM, first compound 0.001 µM): 103%
- viability, T/C (second compound 0.01 µM, first compound 0.00316 µM): 87.6%
- viability, T/C (second compound 0.01 µM, first compound 0.01 µM): 95.2%
- viability, T/C (second compound 0.01 µM, first compound 0.0316 µM): 96.5%
- viability, T/C (second compound 0.01 µM, first compound 0.1 µM): 95.8%
- viability, T/C (second compound 0.0316 µM, first compound 0.000316 µM): 94.8%
- viability, T/C (second compound 0.0316 µM, first compound 0.001 µM): 99%
- viability, T/C (second compound 0.0316 µM, first compound 0.00316 µM): 104%
- viability, T/C (second compound 0.0316 µM, first compound 0.01 µM): 112%
- viability, T/C [5]: 109%
- viability, T/C [6]: 103%
- viability, T/C (second compound 0.1 µM, first compound 0.000316 µM): 105%
- viability, T/C (second compound 0.1 µM, first compound 0.001 µM): 102%
- viability, T/C (second compound 0.1 µM, first compound 0.00316 µM): 97.3%
- viability, T/C (second compound 0.1 µM, first compound 0.01 µM): 91.5%
- viability, T/C [7]: 97.4%
- viability, T/C [8]: 102%
- viability, T/C (second compound 0.316 µM, first compound 0.000316 µM): 97.7%
- viability, T/C (second compound 0.316 µM, first compound 0.001 µM): 96.7%
- viability, T/C (second compound 0.316 µM, first compound 0.00316 µM): 93.4%
- viability, T/C (second compound 0.316 µM, first compound 0.01 µM): 110%
- viability, T/C [9]: 115%
- viability, T/C [10]: 97.3%
- viability, T/C (second compound 1 µM, first compound 0.000316 µM): 114%
- viability, T/C (second compound 1 µM, first compound 0.001 µM): 99.1%
- viability, T/C (second compound 1 µM, first compound 0.00316 µM): 90.1%
- viability, T/C (second compound 1 µM, first compound 0.01 µM): 116%
- viability, T/C [11]: 103%
- viability, T/C [12]: 104%

- IC50 [1]: > 10 µM
- IC50 [2]: > 10 µM
- IC50 [3]: > 10 µM
- IC50 [4]: > 10 µM
- IC50 (curve of first compound, second compound 3.16 µM): > 10 µM
- IC50 (curve of first compound, second compound 10 µM): > 10 µM
Compound: C=CC(=O)N1CCN(c2nc(=O)n(-c3c(C)ccnc3C(C)C)c3nc(-c4c(O)cccc4F)c(F)cc23)C(C)C1 (stereo unspecified) + Cc1c(S(C)(=O)=O)c(-c2cc(F)cc(N3CCN(c4ccc(NS(=O)(=O)c5ccc(NC(CCN6CCC(C(=O)OCCCP(=O)(O)O)CC6)CSc6ccccc6)c(S(=O)(=O)C(F)(F)F)c5)cc4)CC3)c2)c(-c2ccc(Cl)cc2)n1C(C)C
- viability, T/C [5]: 91%
- viability, T/C [6]: 89.5%
- viability, T/C (second compound 0.0316 µM, first compound 0.316 µM): 107%
- viability, T/C (second compound 0.0316 µM, first compound 1 µM): 95.2%
- viability, T/C (second compound 0.0316 µM, first compound 3.16 µM): 103%
- viability, T/C (second compound 0.0316 µM, first compound 10 µM): 109%
- viability, T/C [7]: 85.7%
- viability, T/C [8]: 99.6%
- viability, T/C (second compound 0.1 µM, first compound 0.316 µM): 101%
- viability, T/C (second compound 0.1 µM, first compound 1 µM): 106%
- viability, T/C (second compound 0.1 µM, first compound 3.16 µM): 108%
- viability, T/C (second compound 0.1 µM, first compound 10 µM): 107%
- viability, T/C [9]: 91.1%
- viability, T/C [10]: 114%
- viability, T/C (second compound 0.316 µM, first compound 0.316 µM): 97.6%
- viability, T/C (second compound 0.316 µM, first compound 1 µM): 103%
- viability, T/C (second compound 0.316 µM, first compound 3.16 µM): 109%
- viability, T/C (second compound 0.316 µM, first compound 10 µM): 104%
- viability, T/C [11]: 105%
- viability, T/C [12]: 99.4%
- viability, T/C (second compound 1 µM, first compound 0.316 µM): 111%
- viability, T/C (second compound 1 µM, first compound 1 µM): 98.6%
- viability, T/C (second compound 1 µM, first compound 3.16 µM): 110%
- viability, T/C (second compound 1 µM, first compound 10 µM): 114%
- viability, T/C (second compound 3.16 µM, first compound 0.0316 µM): 96.4%
- viability, T/C (second compound 3.16 µM, first compound 0.1 µM): 95.3%
- viability, T/C (second compound 3.16 µM, first compound 0.316 µM): 102%
- viability, T/C (second compound 3.16 µM, first compound 1 µM): 97.8%
- viability, T/C (second compound 3.16 µM, first compound 3.16 µM): 114%
- viability, T/C (second compound 3.16 µM, first compound 10 µM): 96.7%
- viability, T/C (second compound 10 µM, first compound 0.0316 µM): 99.2%
- viability, T/C (second compound 10 µM, first compound 0.1 µM): 96.5%
- viability, T/C (second compound 10 µM, first compound 0.316 µM): 99.6%
- viability, T/C (second compound 10 µM, first compound 1 µM): 116%
- viability, T/C (second compound 10 µM, first compound 3.16 µM): 106%
- viability, T/C (second compound 10 µM, first compound 10 µM): 95.1%

- IC50 (compound alone, run of 11/07/2022): > 10 µM
Compound: Cc1c(S(C)(=O)=O)c(-c2cc(F)cc(N3CCN(c4ccc(NS(=O)(=O)c5ccc(NC(CCN6CCC(C(=O)OCCCP(=O)(O)O)CC6)CSc6ccccc6)c(S(=O)(=O)C(F)(F)F)c5)cc4)CC3)c2)c(-c2ccc(Cl)cc2)n1C(C)C (stereo unspecified)
- viability, T/C (compound 0.0316 µM): 109% [middle of 7 runs]
- viability, T/C (compound 0.1 µM): 101% [middle of 7 runs]
- viability, T/C (compound 0.316 µM): 96.3% [middle of 7 runs]
- viability, T/C (compound 1 µM): 90.5% [middle of 7 runs]
- viability, T/C (compound 3.16 µM): 95.5% [middle of 7 runs]
- viability, T/C (compound 10 µM): 102% [middle of 7 runs]
